From US20010048964A1, “Low calorie fat compositions” (priority 2000, published 2001) come the findings set out here.

The target in series [1] is T1, porcine lipase (Sus scrofa, UniProt P00591).
T1 sequence (P00591 1-450): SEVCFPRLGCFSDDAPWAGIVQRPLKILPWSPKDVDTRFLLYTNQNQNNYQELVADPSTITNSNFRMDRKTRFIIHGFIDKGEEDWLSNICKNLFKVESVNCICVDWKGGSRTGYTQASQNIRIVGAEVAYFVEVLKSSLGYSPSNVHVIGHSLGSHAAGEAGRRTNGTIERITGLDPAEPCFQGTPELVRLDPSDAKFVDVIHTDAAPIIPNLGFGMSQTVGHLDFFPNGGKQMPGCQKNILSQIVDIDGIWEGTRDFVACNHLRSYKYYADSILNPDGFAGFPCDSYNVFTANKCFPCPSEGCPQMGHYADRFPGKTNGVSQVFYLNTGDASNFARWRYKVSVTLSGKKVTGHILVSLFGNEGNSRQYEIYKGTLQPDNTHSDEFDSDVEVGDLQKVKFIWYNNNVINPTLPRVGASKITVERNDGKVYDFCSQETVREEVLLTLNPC
In words: Hydrolysis by pancreatic lipase, organic solvent system. Conditions: organic solvent (t-amyl alcohol), 30° C., 20 h. The format is in vitro ADME. As for the experimental part:
(§1) The digestibility of the acylated triglycerides of the present invention were done to compare with triolein. The in-vitro assays were done using two emulsion systems as in the following procedure.
Each digest was carried out with 300 mg of the fat/fat substitute, 9 ml of the t-amyl alcohol, 0.5 ml of Bis-Tris propane buffer (10 mM, pH 7.8) and 0.5 ml of porcine lipase (20 mg/ml). The reaction was incubated at 30° C. and the reaction stopped by adding 1 ml aliquots to 3 ml of isopropanol/heptane/sulfuric acid (40/10/1). The product was extracted with heptane and analyzed by GC and GC-MS at 360° C. The hydrolysis of the acetylated castor (hydrogenated) was 48% complete in 20 h and triolein was hydrolyzed to 69%.

Series [2] is described as follows: Caloric availability, two week feeding study. It is filed as in vivo. The note with it: young male Sprague-Dawley rats, modified AIN-76 diet at 15% added fat level. The method, then:
Caloric availability of the compounds are evaluated by the two week feeding study of young male Sprague-Dawley rats weighing approximately 50 to 60 gm. This caloric availability study as described described by Finley, et al. ((1994) J. Agric. Food Chem. 42:489-494) was modified to use smaller amounts of test materials. The feeding study was conducted using a modified AIN-76 diet at 15% added fat level and five test animals are used for each compound. Weight gains are monitored at days 0,3,7,10 and 14.

The target in series [3] is T1, porcine lipase. In words: Hydrolysis by pancreatic lipase, aqueous emulsion system. Conditions: aqueous emulsion (HMPC, sodium cholate), 30 ° C. The format is in vitro ADME. As for the experimental part:
as §1
A mixture of 300 mg of the fat/fat substitute, 4 ml of Bis-Tris propane buffer (10 mM, pH 7.8), 5 ml of hydroxyproylmethylcellulose (HMPC, […]), 0.5 ml of sodium cholate (0.1M) were sonicated to disperse the fats and incubated at 30 ° C. Porcine lipase (0.5 ml, 20 mg/ml) was added. The analysis of the reaction was carried out as in the above organic solution assay. Acetylated castor (hydrogenated) was 70% hydrolyzed while triolein under similar conditions was 93% hydrolyzed.

`CCCCCCC(CCCCCCCCCCC(=O)OCC(COC(=O)CCCCCCCCCCC(CCCCCC)OC(C)=O)OC(=O)CCCCCCCCCCC(CCCCCC)OC(C)=O)OC(C)=O` (stereo not shown) [acetylated castor (hydrogenated), 12-acetyloxyoctadecanoic acid triglyceride] came in with a hydrolysis on porcine lipase [1] of 48%. The compound also had a caloric availability in series [2] of 6 kcal/g. The compound further gave a hydrolyzed at porcine lipase [3] of 70%.
Take `CCCCCCCCCCCCCCCCCC(=O)OC(CCCCCC)CCCCCCCCCCCCC(=O)OCC(COC(=O)CCCCCCCCCCCCC(CCCCCC)OC(=O)CCCCCCCCCCCCCCCCC)OC(=O)CCCCCCCCCCCCCCCCC` (stereo not shown) [distearoyl lesquerella oil-hydrogenated, 1,3-bis(14-octadecanoyloxy)eicosanoic acid-2-octadecanoic acid triglyceride]: the caloric availability in series [2] is listed as 5.6 kcal/g.
